The values below come from patent US9474790B2, “Stable, protracted GLP-1/glucagon receptor co-agonists for medical use” (Novo Nordisk A/S, priority 2013, dated 2016).

Numbered stars: 1 amine (or outer) side, 2 acyl side, 3 side chain; on linkers, the order of the positions; unused ones are H or OH. Bridge positions count the residues as written; N and C are the ends. Square brackets hold non-standard residues; d marks the D form. Side chains are listed from the residue outwards. Peptide text beside a SMILES is read from it. I, II: the chains in the order shown. * marks the point of attachment. C18 diacid = O=C(O)CCCCCCCCCCCCCCCCC(=O)*; γGlu = O=C(O)[C@H](CCC(=O)[*:2])N[*:1]; AEEA = NCCOCCOCC(=O)O; Aib = CC(C)(N)C(=O)O

The target in the test is T1, human GLP-1 receptor (Homo sapiens, UniProt P43220).
T1 construct: expressed in transfected cells; host or cells: BHK cells (parent BHKTS13), clone FCW467-12A/KZ10-1, with CRE luciferase
T1 sequence (P43220 24-463): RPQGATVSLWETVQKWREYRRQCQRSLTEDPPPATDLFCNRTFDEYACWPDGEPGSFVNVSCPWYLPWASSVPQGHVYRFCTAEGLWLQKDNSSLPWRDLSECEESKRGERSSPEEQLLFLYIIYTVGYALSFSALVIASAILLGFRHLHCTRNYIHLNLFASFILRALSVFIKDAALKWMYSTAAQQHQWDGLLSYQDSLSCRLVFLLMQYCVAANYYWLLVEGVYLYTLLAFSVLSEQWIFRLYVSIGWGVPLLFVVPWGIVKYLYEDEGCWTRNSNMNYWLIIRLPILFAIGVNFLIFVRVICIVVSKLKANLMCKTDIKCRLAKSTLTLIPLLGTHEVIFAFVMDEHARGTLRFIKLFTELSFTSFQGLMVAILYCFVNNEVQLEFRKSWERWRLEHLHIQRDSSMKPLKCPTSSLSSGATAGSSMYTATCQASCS
Briefly: GLP-1 receptor binding, 125I-GLP-1 displacement SPA on isolated membranes. Conditions: displacement of 125I-GLP-1 from membranes; read-out: IC50 GLP-1R. Put shortly:
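SPA displacement of 125I-GLP-1(7-36)NH2 from membranes of BHK cells expressing human GLP-1 receptor, with WGA beads, in 50 mM HEPES, 5 mM EGTA, 5 mM MgCl2, 0.005% Tween 20, pH 7.4. Incubated 2 h at 30°C; IC50 by non-linear regression, run at ≤0.001% or 2.0% final serum albumin.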

On to `CC(C)C[C@H](NC(=O)[C@H](Cc1ccc(O)cc1)NC(=O)[C@H](CCCCN)NC(=O)[C@H](CO)NC(=O)[C@H](CC(C)C)NC(=O)[C@H](CC(=O)O)NC(=O)[C@H](CO)NC(=O)[C@@H](NC(=O)[C@H](Cc1ccccc1)NC(=O)[C@@H](NC(=O)CNC(=O)[C@H](Cc1c[nH]cn1)NC(=O)C(C)(C)NC(=O)[C@@H](N)Cc1c[nH]cn1)[C@@H](C)O)[C@@H](C)O)C(=O)N[C@@H](CCC(=O)O)C(=O)N[C@@H](CO)C(=O)N[C@@H](CCCNC(=N)N)C(=O)N[C@@H](CCCNC(=N)N)C(=O)N[C@@H](C)C(=O)N[C@@H](CCCNC(=N)N)C(=O)N[C@@H](CC(=O)O)C(=O)N[C@@H](Cc1ccccc1)C(=O)N[C@H](C(=O)N[C@@H](CCC(N)=O)C(=O)N[C@@H](Cc1c[nH]c2ccccc12)C(=O)N[C@@H](CC(C)C)C(=O)N[C@@H](CC(C)C)C(=O)N[C@@H](CCCCNC(=O)CNC(=O)[C@H](CO)NC(=O)[C@H](CCC(=O)O)NC(=O)CNC(=O)[C@H](CO)NC(=O)CC[C@H](NC(=O)CC[C@H](NC(=O)CCCCCCCCCCCCCCCCC(=O)O)C(=O)O)C(=O)O)C(=O)N[C@H](C(N)=O)[C@@H](C)O)C(C)C` [Example 37, N^ε28-[2-[[(2S)-2-[[(2S)-4-carboxy-2-[[2-[[(2S)-2-[[(4S)-4-carboxy-4-[[(4S)-4-carboxy-4-(17-carboxyheptadecanoylamino)butanoyl]amino]butanoyl]amino]-3-hydroxypropanoyl]amino]acetyl]amino]butanoyl]amino]-3-hydroxypropanoyl]amino]acetyl]-[Aib2,His3,Leu10,Glu15, Arg20,Leu27,Lys28]-Glucagon amide] (I: H-H[Aib]HGTFTSDLSKYLESRRARDFVQWLLKT-NH2 / II: {C18 diacid-γGlu-γGlu}-SGESG; amide I:28-II:C; N-terminus assumed), for which the IC50 was 0.2 nM.
The result for `CC(C)C[C@H](NC(=O)[C@H](Cc1ccc(O)cc1)NC(=O)[C@H](CCCCN)NC(=O)[C@H](CO)NC(=O)[C@H](CC(C)C)NC(=O)[C@H](CC(=O)O)NC(=O)[C@H](CO)NC(=O)[C@@H](NC(=O)[C@H](Cc1ccccc1)NC(=O)[C@@H](NC(=O)CNC(=O)[C@H](CCC(N)=O)NC(=O)C(C)(C)NC(=O)[C@@H](N)Cc1c[nH]cn1)[C@@H](C)O)[C@@H](C)O)C(=O)N[C@@H](CC(=O)O)C(=O)N[C@@H](C)C(=O)N[C@@H](CCCNC(=N)N)C(=O)N[C@@H](CCCNC(=N)N)C(=O)N[C@@H](C)C(=O)N[C@@H](CCCNC(=N)N)C(=O)N[C@@H](CCC(=O)O)C(=O)N[C@@H](Cc1ccccc1)C(=O)N[C@H](C(=O)N[C@@H](CCC(N)=O)C(=O)N[C@@H](Cc1c[nH]c2ccccc12)C(=O)N[C@@H](CC(C)C)C(=O)N[C@@H](CC(C)C)C(=O)N[C@@H](CC(N)=O)C(=O)N[C@@H](CCCCNC(=O)CC[C@H](NC(=O)CC[C@H](NC(=O)COCCOCCNC(=O)CC[C@H](NC(=O)CCCCCCCCCCCCCCCCC(=O)O)C(=O)O)C(=O)O)C(=O)O)C(N)=O)C(C)C` [Example 39, N^ε29-[(4S)-4-carboxy-4-[[(4S)-4-carboxy-4-[[2-[2-[2-[[(4S)-4-carboxy-4-(17-carboxyheptadecanoylamino)butanoyl]amino]ethoxy]ethoxy]acetyl]amino]butanoyl]amino]butanoyl]-[Aib2,Leu10,Ala16,Arg20,Glu21,Leu27,Lys29]-Glucagon amide] (H-H[Aib]QGTFTSDLSKYLDARRAREFVQWLLNK([γGlu-γGlu-AEEA-γGlu-C18 diacid])-NH2; N-terminus assumed) reads 0.3 nM; that for `CC(C)C[C@H](NC(=O)[C@H](CC(C)C)NC(=O)[C@H](Cc1c[nH]c2ccccc12)NC(=O)[C@H](CCC(N)=O)NC(=O)[C@@H](NC(=O)[C@H](Cc1ccccc1)NC(=O)[C@H](CCC(=O)O)NC(=O)[C@H](CCCNC(=N)N)NC(=O)[C@H](C)NC(=O)[C@H](CCCNC(=N)N)NC(=O)[C@H](CCCNC(=N)N)NC(=O)[C@H](CO)NC(=O)[C@H](CCC(=O)O)NC(=O)[C@H](CC(C)C)NC(=O)[C@H](Cc1ccc(O)cc1)NC(=O)[C@H](CCCCN)NC(=O)[C@H](CO)NC(=O)[C@H](CC(C)C)NC(=O)[C@H](CC(=O)O)NC(=O)[C@H](CO)NC(=O)[C@@H](NC(=O)[C@H](Cc1ccccc1)NC(=O)[C@@H](NC(=O)CNC(=O)[C@H](CCC(N)=O)NC(=O)C(C)(C)NC(=O)[C@@H](N)Cc1c[nH]cn1)[C@@H](C)O)[C@@H](C)O)C(C)C)C(=O)N[C@@H](CC(N)=O)C(=O)N[C@@H](CCCCNC(=O)CC[C@H](NC(=O)CC[C@H](NC(=O)COCCOCCNC(=O)CC[C@H](NC(=O)CCCCCCCCCCCCCCCCC(=O)O)C(=O)O)C(=O)O)C(=O)O)C(N)=O` [Example 40, N^ε29-[(4S)-4-carboxy-4-[[(4S)-4-carboxy-4-[[2-[2-[2-[[(4S)-4-carboxy-4-(17-carboxyheptadecanoylamino)butanoyl]amino]ethoxy]ethoxy]acetyl]amino]butanoyl]amino]butanoyl]-[Aib2,Leu10,Glu15,Arg20,Glu21,Leu27,Lys29]-Glucagon amide] (H-H[Aib]QGTFTSDLSKYLESRRAREFVQWLLNK([γGlu-γGlu-AEEA-γGlu-C18 diacid])-NH2; N-terminus assumed), 0.4 nM; that for `CC(C)C[C@H](NC(=O)[C@H](Cc1ccc(O)cc1)NC(=O)[C@H](CCCCN)NC(=O)[C@H](CO)NC(=O)[C@H](CC(C)C)NC(=O)[C@H](CC(=O)O)NC(=O)[C@H](CO)NC(=O)[C@@H](NC(=O)[C@H](Cc1ccccc1)NC(=O)[C@@H](NC(=O)CNC(=O)[C@H](CCC(N)=O)NC(=O)C(C)(C)NC(=O)[C@@H](N)Cc1c[nH]cn1)[C@@H](C)O)[C@@H](C)O)C(=O)N[C@@H](CCC(=O)O)C(=O)N[C@@H](CO)C(=O)N[C@@H](CCCNC(=N)N)C(=O)N[C@@H](CCCNC(=N)N)C(=O)N[C@@H](C)C(=O)N[C@@H](CCCNC(=N)N)C(=O)N[C@@H](CCC(=O)O)C(=O)N[C@@H](Cc1ccccc1)C(=O)N[C@H](C(=O)N[C@@H](CCC(N)=O)C(=O)N[C@@H](Cc1c[nH]c2ccccc12)C(=O)N[C@@H](CC(C)C)C(=O)N[C@@H](CC(C)C)C(=O)N[C@@H](CCCCNC(=O)CC[C@H](NC(=O)CC[C@H](NC(=O)CC[C@H](NC(=O)CCCCCCCCCCCCCCCCC(=O)O)C(=O)O)C(=O)O)C(=O)O)C(=O)N[C@H](C(N)=O)[C@@H](C)O)C(C)C` [Example 41, N^ε28-[(4S)-4-carboxy-4-[[(4S)-4-carboxy-4-[[(4S)-4-carboxy-4-(17-carboxyheptadecanoylamino)butanoyl]amino]butanoyl]amino]butanoyl]-[Aib2,Leu10,Glu15, Arg20,Glu21,Leu27,Lys28]-Glucagon amide] (H-H[Aib]QGTFTSDLSKYLESRRAREFVQWLLK([γGlu-γGlu-γGlu-C18 diacid])T-NH2; N-terminus assumed), 0.3 nM.

Broadly, the IC50 is the concentration that gives 50% inhibition.
